Assay [1] concerns the target T1, G2019S LRRK2 (Homo sapiens, UniProt Q5S007, G2019S).
T1 construct: expressed in transfected cells; host or cells: HEK293 (ATCC CRL-1573), transient transfection, mammalian expression vector with ubiquitin promoter
Description: LRRK2 degradation assay, HiBit-tagged G2019S LRRK2 expressed from plasmid in HEK293 cells (Nano-Glo Dual-Luciferase). The format is cell-based. The conditions noted are these: 24 hours. The source says:
(§1) Exemplary Assay for Testing LRRK2 Degradation Driven by Exemplary Hetero-Bifunctional Compounds Designed to Target LRRK2
(§2) The assay measures the degradation of wildtype and G2019S LRRK2 tagged with a HiBit tag on the C-terminus of the protein that was expressed from a mammalian expression vector, driven by the ubiquitin promoter in HEK293 cells. Each compound dose-response was repeated on two separate days, on three separate plates each day.
(§3) Plasmid Preparation. Transfection mixes were assembled as follows and incubated for 30 minutes at room temperature. In a 15 mL tube, 5.25 mL Opti-MEM (no additions) was mixed with 17 μL Firefly Luciferase plasmid at 1 μg/μL and 158 μL WT plasmid DNA at 1 μg/μL (175 μg total DNA) were mixed by flicking. In a new 15 mL tube, 5.25 mL OptiMEM was mixed with 17 μL Firefly Luciferase plasmid at 1 μg/μL and 158 μL G2019S plasmid DNA at 1 μg/μL (175 μg total DNA) were mixed by flicking. X-tremeGene HP was mixed thoroughly using a vortex. Next, 175 μL was added to each tube and flicked to mix. Both tubes were left to incubate for 30 minutes at room temperature.
(§4) While the transfection mixes were incubating, HEK293 cells (acquired from ATCC; ATCC CRL-1573) were harvested with trypsin. Once cells are detached, the cells were resuspended in 12 mL OptiMEM+5% FBS and transferred to a 50 mL tube. The cells were mixed well and counted. Using OptiMEM+5% FBS, the cells were diluted in two 250 mL conical tubes at 0.71×10^6 cells/mL in 70 mL. One tube was labeled “WT” and the other “G2019S”. The WT and G2019S transfection mixes were added dropwise to the corresponding 250 mL tubes. The tubes were mixed first by pipetting then by swirling. The tubes were incubated at room temperature for at least 5 minutes.
(§5) Each tube was swirled before dispensing and after every three plates. Seventy microliters of cells were dispensed with WT or G2019S DNA to seven plates each. Three plates of each were tested with compound plate one (preparation described below) and three plates of each were tested with compound plate two (preparation described below). The first plate from each set served as a “prime” plate and was not used to test compounds. Each plate was incubated in the hood for 10 minutes before placing in the 37° C. incubator for 24 hours.
(§6) Preparation of Compound and Assay Plates. Two compound plates were made using 96 well polypropylene plates. Compounds were made up at 10 mM and were diluted to 1 mM in 30 μL. Each dose response curve included a well of DMSO, as a negative control and for normalization, and a well of 0.5 μM of Compound 4 as a positive control. In addition to seven test compounds, each plate also included a dose response of Compound 4. The compound plates were spun down along at 1200 rpm for 2 minutes.
(§7) The two compound plates were then mixed and 2 μL was diluted in intermediate plates having 248 μL of Opti-Mem in each well. Next, 10 μL diluted compounds from the intermediate plates were added to each test plate (three WT and three G2019S plates per compound plate for a total of 12 assay plates). The plates were incubated for 24 hours at 37° C.
(§8) All assay plates and all Nano-Glo Dual-Luciferase Reporter Assay System components (except for the DLR substrate) were equilibrated to room temperature. Next, the luciferase buffer was mixed with the lyophilized amber bottle until fully dissolved, and 75 μL of the luciferase mixture was added to each well of each assay plate. The assay plates were incubated for 10 minutes at room temperature with shaking for at least 5 minutes, and then read on a plate reader.
(§9) Developing Plates and Analyzing Data. One milliliter of DLR substrate and 1 mL LgBiT Protein were added to the Stop and Glo buffer, and 75 μL of the mixture was added to each well of each plate. Optically clear seals were added to each plate and each plate was incubated for 20 minutes with shaking for at least 10 minutes, and then read on a plate reader. […]
Background: The HiBiT peptide binds its large partner to form an active luciferase.

Assay [2] concerns the target T2, wildtype LRRK2 (Homo sapiens, UniProt Q5S007).
T2 construct: expressed in transfected cells; host or cells: HEK293 (ATCC CRL-1573), transient transfection, mammalian expression vector with ubiquitin promoter
Briefly: LRRK2 degradation assay, HiBit-tagged wildtype LRRK2 expressed from plasmid in HEK293 cells (Nano-Glo Dual-Luciferase). The assay is classed as cell-based. The conditions noted are these: 24 hours; for Dmax: read-out: **WT Dmax (%); for DC50: read-out: *WT DC50.
Source text: as §1, §2, §3, §4, §5, §6, §7, §8, §9

The mark [3] stands for this setting: HiBit-tagged G2019S LRRK2 in HEK293 cells.
Setting [4] is: HiBit-tagged wildtype LRRK2 in HEK293 cells.
Setting [5] is: HiBit-tagged G2019S LRRK2, HEK293 cells.
[6] abbreviates: HiBit-tagged wildtype LRRK2, HEK293 cells.

Where two headings read alike, the source gives them in different places.

T2 sequence (Q5S007 whole entry): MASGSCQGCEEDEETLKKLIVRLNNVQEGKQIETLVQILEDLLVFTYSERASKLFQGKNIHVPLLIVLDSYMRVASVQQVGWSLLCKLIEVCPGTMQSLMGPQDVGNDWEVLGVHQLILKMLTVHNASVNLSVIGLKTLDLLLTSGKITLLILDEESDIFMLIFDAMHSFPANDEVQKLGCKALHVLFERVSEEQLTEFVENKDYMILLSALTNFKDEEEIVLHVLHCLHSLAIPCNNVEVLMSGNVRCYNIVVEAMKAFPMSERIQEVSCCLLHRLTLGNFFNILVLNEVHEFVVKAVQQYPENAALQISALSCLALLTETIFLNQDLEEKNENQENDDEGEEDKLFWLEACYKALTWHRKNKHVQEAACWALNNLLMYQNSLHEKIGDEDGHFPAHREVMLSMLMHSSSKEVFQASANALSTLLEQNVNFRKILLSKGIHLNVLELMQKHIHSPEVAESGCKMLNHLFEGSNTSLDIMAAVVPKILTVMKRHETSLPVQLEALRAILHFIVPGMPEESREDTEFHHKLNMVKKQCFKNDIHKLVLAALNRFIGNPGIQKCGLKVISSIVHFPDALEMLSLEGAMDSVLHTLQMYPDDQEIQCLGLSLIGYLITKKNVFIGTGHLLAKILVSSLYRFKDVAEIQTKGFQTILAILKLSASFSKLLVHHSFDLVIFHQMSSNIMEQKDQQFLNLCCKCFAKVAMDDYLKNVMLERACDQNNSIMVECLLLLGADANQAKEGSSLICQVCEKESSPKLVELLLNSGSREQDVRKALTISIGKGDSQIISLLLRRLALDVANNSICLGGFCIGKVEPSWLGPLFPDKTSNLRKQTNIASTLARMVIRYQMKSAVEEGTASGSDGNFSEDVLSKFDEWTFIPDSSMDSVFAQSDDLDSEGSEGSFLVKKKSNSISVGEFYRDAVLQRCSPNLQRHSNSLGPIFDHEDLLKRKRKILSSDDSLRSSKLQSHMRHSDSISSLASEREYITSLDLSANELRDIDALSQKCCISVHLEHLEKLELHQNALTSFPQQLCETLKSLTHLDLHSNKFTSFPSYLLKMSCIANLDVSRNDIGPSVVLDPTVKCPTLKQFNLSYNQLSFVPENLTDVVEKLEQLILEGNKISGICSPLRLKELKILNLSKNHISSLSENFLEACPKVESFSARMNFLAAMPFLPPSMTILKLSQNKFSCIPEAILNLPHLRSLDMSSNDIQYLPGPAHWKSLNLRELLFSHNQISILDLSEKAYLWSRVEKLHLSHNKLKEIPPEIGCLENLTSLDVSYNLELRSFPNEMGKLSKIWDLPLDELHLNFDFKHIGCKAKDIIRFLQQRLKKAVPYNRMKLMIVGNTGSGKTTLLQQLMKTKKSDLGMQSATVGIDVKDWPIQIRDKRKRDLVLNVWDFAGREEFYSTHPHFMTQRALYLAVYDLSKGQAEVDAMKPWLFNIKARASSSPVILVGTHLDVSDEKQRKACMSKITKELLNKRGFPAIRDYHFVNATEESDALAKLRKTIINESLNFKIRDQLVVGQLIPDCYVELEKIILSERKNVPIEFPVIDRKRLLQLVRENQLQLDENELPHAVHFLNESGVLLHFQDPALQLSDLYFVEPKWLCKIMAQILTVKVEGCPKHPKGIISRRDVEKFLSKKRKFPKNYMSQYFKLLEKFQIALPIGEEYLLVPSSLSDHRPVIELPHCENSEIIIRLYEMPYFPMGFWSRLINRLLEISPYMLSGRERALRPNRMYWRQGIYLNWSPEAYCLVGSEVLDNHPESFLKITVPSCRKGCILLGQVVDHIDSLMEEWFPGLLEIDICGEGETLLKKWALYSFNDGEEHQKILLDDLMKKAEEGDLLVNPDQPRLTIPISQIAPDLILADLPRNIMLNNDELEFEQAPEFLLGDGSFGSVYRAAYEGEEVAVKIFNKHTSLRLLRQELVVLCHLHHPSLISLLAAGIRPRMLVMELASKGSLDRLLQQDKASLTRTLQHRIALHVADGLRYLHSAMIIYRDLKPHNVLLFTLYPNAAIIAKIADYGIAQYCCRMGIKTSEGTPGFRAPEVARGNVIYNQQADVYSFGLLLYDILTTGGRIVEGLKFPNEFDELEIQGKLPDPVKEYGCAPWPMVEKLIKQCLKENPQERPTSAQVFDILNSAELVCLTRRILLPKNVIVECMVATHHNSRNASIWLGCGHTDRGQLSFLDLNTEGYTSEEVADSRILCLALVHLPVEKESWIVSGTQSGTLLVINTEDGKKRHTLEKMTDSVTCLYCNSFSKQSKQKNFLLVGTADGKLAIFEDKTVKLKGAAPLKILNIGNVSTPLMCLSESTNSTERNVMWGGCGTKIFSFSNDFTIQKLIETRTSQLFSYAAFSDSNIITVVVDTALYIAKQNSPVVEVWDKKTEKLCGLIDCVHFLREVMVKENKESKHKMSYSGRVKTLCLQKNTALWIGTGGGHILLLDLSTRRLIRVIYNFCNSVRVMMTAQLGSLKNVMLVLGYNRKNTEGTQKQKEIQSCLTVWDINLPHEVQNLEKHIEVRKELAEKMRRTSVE
T1 sequence (Q5S007 whole entry G2019S): as the sequence (Q5S007 whole entry) above, with G2019S counted along it

A word on the DC50: it is the midpoint of the concentration-degradation curve. A word on the Dmax: it is the greatest extent of degradation seen. In assay [1] (setting [3]), `CC1(Oc2ccc3[nH]nc(-c4cc(N5CCN(CC6(F)CCN(CC7CCN(c8ccc9c(c8)C(=O)N(C8CCC(=O)NC8=O)C9=O)CC7)CC6)CC5)ncn4)c3c2)CC1` (centres unmarked) [Compound 79, 2-(2,6-dioxo-3-piperidyl)-5-[4-[[4-fluoro-4-[[4-[6-[5-(1-methylcyclopropoxy)-1H-indazol-3-yl]pyrimidin-4-yl]piperazin-1-yl]methyl]-1-piperidyl]methyl]-1-piperidyl]isoindoline-1,3-dione] gave a DC50 of less than 10 nM and a Dmax of 50 to 70%. In assay [2] (setting [4]), the Dmax was less than 50% and the 50% degradation concentration (DC50) was less than 10 nM.

In assay [1] (setting [3]), `CC1(Oc2ccc3n[nH]c(-c4cc(N5CCN(CC6(F)CCN(CC7CN(c8ccc9c(c8)C(=O)N(C8CCC(=O)NC8=O)C9=O)C7)CC6)CC5)ncn4)c3c2)CC1` (centres unmarked) [Compound 135, 2-(2,6-dioxo-3-piperidyl)-5-[3-[[4-fluoro-4-[[4-[6-[5-(1-methylcyclopropoxy)-2H-indazol-3-yl]pyrimidin-4-yl]piperazin-1-yl]methyl]-1-piperidyl]methyl]azetidin-1-yl]isoindoline-1,3-dione] came in with a DC50 of less than 10 nM and a Dmax of 50 to 70%. In addition, in assay [2] (setting [4]), the Dmax is less than 50% and the DC50 was less than 10 nM.

As to `CC1(Oc2ccc3[nH]nc(-c4ccnc(N5CCOC6(CN(CC7CCN(CC8CCN(c9ccc%10c(c9)C(=O)N(C9CCC(=O)NC9=O)C%10=O)CC8)CC7)C6)C5)c4)c3c2)CC1` (centres unmarked) [Compound 151, 2-(2,6-dioxo-3-piperidyl)-5-[4-[[4-[[8-[4-[5-(1-methylcyclopropoxy)-1H-indazol-3-yl]-2-pyridyl]-5-oxa-2,8-diazaspiro[3.5]nonan-2-yl]methyl]-1-piperidyl]methyl]-1-piperidyl]isoindoline-1,3-dione], the half-maximal degradation concentration (DC50) in assay [1] (setting [3]) and in assay [2] (setting [4]) was less than 10 nM each time. The Dmax in assay [1] (setting [3]) and in assay [2] (setting [4]) was 50 to 70% throughout.

In assay [1] (setting [3]), `CC1(Oc2ccc3[nH]nc(-c4cc(N5CCC(CN6CCN(CC7CCN(c8cc9c(cc8F)C(=O)N(C8CCC(=O)NC8=O)C9=O)CC7)CC6)CC5)ncn4)c3c2)CC1` (centres unmarked) [Compound 107, 2-(2,6-dioxo-3-piperidyl)-5-fluoro-6-[4-[[4-[[1-[6-[5-(1-methylcyclopropoxy)-1H-indazol-3-yl]pyrimidin-4-yl]-4-piperidyl]methyl]piperazin-1-yl]methyl]-1-piperidyl]isoindoline-1,3-dione] returned a DC50 of 10 to 50 nM and a Dmax of 50 to 70%. Also, in assay [2] (setting [4]), the Dmax was less than 50% and the 50% degradation concentration (DC50) was less than 10 nM.

In assay [1] (setting [3]), `CC1(Oc2ccc3[nH]nc(-c4cc(N5CCC(CN6CC[C@@H](CN7CCN(c8ccc9c(c8)C(=O)N(C8CCC(=O)NC8=O)C9=O)CC7)C6)CC5)ncn4)c3c2)CC1` (stereo partly drawn) [Compound 115, 2-(2,6-dioxopiperidin-3-yl)-5-(4-{[(3R)-1-[(1-{6-[5-(1-methylcyclopropoxy)-1H-indazol-3-yl]pyrimidin-4-yl}piperidin-4-yl)methyl]pyrrolidin-3-yl]methyl}piperazin-1-yl)-2,3-dihydro-1H-isoindole-1,3-dione] displayed a DC50 of less than 10 nM and a Dmax of 50 to 70%. Besides, in assay [2] (setting [4]), the maximal degradation (Dmax) lay in the range of 50 to 70% and the DC50 is less than 10 nM.

Regarding `CC1(Oc2ccc3[nH]nc(-c4cc(N5CCN(CC(F)(F)C6CCN(CC7CCN(c8ccc9c(c8)C(=O)N(C8CCC(=O)NC8=O)C9=O)CC7)CC6)CC5)ncn4)c3c2)CC1` (centres unmarked) [Compound 53, 5-[4-[[4-[1,1-difluoro-2-[4-[6-[5-(1-methylcyclopropoxy)-1H-indazol-3-yl]pyrimidin-4-yl]piperazin-1-yl]ethyl]-1-piperidyl]methyl]-1-piperidyl]-2-(2,6-dioxo-3-piperidyl)isoindoline-1,3-dione], the DC50 in assay [1] (setting [3]) and in assay [2] (setting [4]) was less than 10 nM each time. Further, the Dmax in assay [1] (setting [3]) and in assay [2] (setting [4]) was 50 to 70% throughout.

Take `CC1(Oc2ccc3[nH]nc(-c4cc(N5CCC(CN6CCN(CC7CN(c8ccc9c(c8)C(=O)N(C8CCC(=O)NC8=O)C9=O)C7)CC6)CC5)ncn4)c3c2)CC1` (centres unmarked) [Compound 133, 2-(2,6-dioxo-3-piperidyl)-5-[3-[[4-[[1-[6-[5-(1-methylcyclopropoxy)-1H-indazol-3-yl]pyrimidin-4-yl]-4-piperidyl]methyl]piperazin-1-yl]methyl]azetidin-1-yl]isoindoline-1,3-dione]: the half-maximal degradation concentration (DC50) in assay [1] (setting [3]) and in assay [2] (setting [4]) was less than 10 nM in each case. In addition, the Dmax in assay [1] (setting [3]) and in assay [2] (setting [4]) was 50 to 70% each time.

In assay [1] (setting [3]), `C[C@H]1CN(c2cc(-c3n[nH]c4cc(F)c(OC5(C)CC5)cc34)ncn2)CCN1CC1(F)CCN(CC2CCN(c3ccc4c(c3)C(=O)N(C3CCC(=O)NC3=O)C4=O)CC2)CC1` (stereo partly drawn) [Compound 106, 2-(2,6-dioxo-3-piperidyl)-5-[4-[[4-fluoro-4-[[(2S)-4-[6-[6-fluoro-5-(1-methylcyclopropoxy)-1H-indazol-3-yl]pyrimidin-4-yl]-2-methyl-piperazin-1-yl]methyl]-1-piperidyl]methyl]-1-piperidyl]isoindoline-1,3-dione] had a DC50 of less than 10 nM and a maximal degradation (Dmax) of less than 50%. Moreover, in assay [2] (setting [4]), the Dmax is less than 50% and the DC50 is less than 10 nM.

In the case of `CC1(Oc2ccc3[nH]nc(-c4ccnc(N5CCN(C[C@H]6CC[C@H](CN7CCN(c8ccc9c(c8)C(=O)N(C8CCC(=O)NC8=O)C9=O)CC7)CC6)CC5)c4)c3c2)CC1` (some centres unmarked) [Compound 102, 2-(2,6-dioxopiperidin-3-yl)-5-(4-{[(1r,4r)-4-[(4-{4-[5-(1-methylcyclopropoxy)-1H-indazol-3-yl]pyridin-2-yl}piperazin-1-yl)methyl]cyclohexyl]methyl}piperazin-1-yl)-2,3-dihydro-1H-isoindole-1,3-dione], in assay [1] (setting [3]), the DC50 was 10 to 50 nM and the Dmax is less than 50%. For the same compound, in assay [2] (setting [4]), the Dmax is less than 50% and the DC50 lay in the range of 10 to 50 nM.

For the compound `CC1(Oc2ccc3[nH]nc(-c4cc(N5CCN(C[C@H]6CN(CC7CCN(c8ccc9c(c8)C(=O)N(C8CCC(=O)NC8=O)C9=O)CC7)CCO6)CC5)ncn4)c3c2)CC1` (stereo partly drawn) [Compound 157, 2-(2,6-dioxopiperidin-3-yl)-5-(4-{[(2S)-2-[(4-{6-[5-(1-methylcyclopropoxy)-1H-indazol-3-yl]pyrimidin-4-yl}piperazin-1-yl)methyl]morpholin-4-yl]methyl}piperidin-1-yl)-2,3-dihydro-1H-isoindole-1,3-dione], in assay [1] (setting [5]), the half-maximal degradation concentration (DC50) is less than 10 nM and the Dmax is not below 70%. Also, in assay [2] (setting [6]), the greatest degradation seen (Dmax) lay in the range of 50 to 70% and the DC50 was less than 10 nM.

In assay [1] (setting [3]), `C[C@H]1CN(c2cc(-c3n[nH]c4ccc(OC5(C)CC5)cc34)ncn2)CCN1C[C@@H]1CCN(CC2CCN(c3ccc4c(c3)C(=O)N(C3CCC(=O)NC3=O)C4=O)CC2)C1` (stereo partly drawn) [Compound 113, 2-(2,6-dioxopiperidin-3-yl)-5-(4-{[(3R)-3-{[(2S)-2-methyl-4-{6-[5-(1-methylcyclopropoxy)-1H-indazol-3-yl]pyrimidin-4-yl}piperazin-1-yl]methyl}pyrrolidin-1-yl]methyl}piperidin-1-yl)-2,3-dihydro-1H-isoindole-1,3-dione] came in with a 50% degradation concentration (DC50) of less than 10 nM and a Dmax of less than 50%. Also, in assay [2] (setting [4]), the Dmax was 50 to 70% and the 50% degradation concentration (DC50) was less than 10 nM.

For the origin of these results see patent publication US12559506B2, “Indazole based compounds and associated methods of use” (Arvinas Operations, Inc., priority 2021, dated 2026).
